pIC50: −log10 of the molar value.
Assays:
Hepatitis C virus [1] = assay: Antiviral activity against Hepatitis C virus subtype 1b infected in Huh-7 cells transfected with HCV subgenomic replicon for NS5B polymerase assessed as inhibition of viral replication measured upto 96 hrs in presence of 40% of human serum by luciferase reporter gene assay; type: functional, organism-based, Hepacivirus hominis; conditions: Huh-7, 96 h
[2] = Cytotoxicity against human Huh-7 cells transfected with HCV subgenomic replicon for NS5B polymerase assessed as reduction in cell viability; type: toxicity, cell-based
Hepatitis C virus [3] = assay: Antiviral activity against Hepatitis C virus subtype 1b infected in Huh-7 cells transfected with HCV subgenomic replicon for NS5B polymerase assessed as inhibition of viral replication measured upto 96 hrs by luciferase reporter gene assay; type: functional, organism-based, Hepacivirus hominis; conditions: for pIC50: Huh-7, 96 h; for IC90: Huh-7, time <= 96 hrs
[4] = Protein binding in rat plasma at 1 uM incubated for 6 hrs by LC-MS/MS based rapid equilibrium dialysis method; type: ADME, cell-free; conditions: read-out: PPB (converted)
[5] = Cmax in Sprague-Dawley rat at 3 mg/kg,po and measured after 72 hrs by LC/MS/MS analysis; type: ADME, organism-based; set-up: time 72 hrs, dose 3 mg/kg, route po; conditions: in vivo
[6] = Unbound AUC (0 to infinity) in Sprague-Dawley rat at 3 mg/kg,po and measured after 72 hrs by LC/MS/MS analysis; type: ADME, organism-based; conditions: in vivo
[7] = Clearance in Sprague-Dawley rat at 1 mg/kg,iv and measured after 72 hrs by LC/MS/MS analysis; type: ADME, organism-based; conditions: in vivo
[8] = Half life in Sprague-Dawley rat at 3 mg/kg,po and measured after 72 hrs by LC/MS/MS analysis; type: ADME, organism-based; conditions: in vivo
[9] = Oral bioavailability in Sprague-Dawley rat at 3 mg/kg and measured after 72 hrs by LC/MS/MS analysis; type: ADME, organism-based; conditions: in vivo
[10] = Unbound AUC (0 to infinity) in Sprague-Dawley rat at 1 mg/kg,iv and measured after 72 hrs by LC/MS/MS analysis; type: ADME, organism-based; conditions: in vivo
[11] = AUC (0 to infinity) in Sprague-Dawley rat at 1 mg/kg,iv and measured after 72 hrs by LC/MS/MS analysis; type: ADME, organism-based; set-up: time 72 hrs, dose 1 mg/kg, route iv; conditions: in vivo
[12] = Unbound clearance in Sprague-Dawley rat at 1 mg/kg,iv and measured after 72 hrs by LC/MS/MS analysis; type: ADME, organism-based; conditions: in vivo
[13] = Half life in Sprague-Dawley rat at 1 mg/kg,iv and measured after 72 hrs by LC/MS/MS analysis; type: ADME, organism-based; conditions: in vivo
[14] = AUC (0 to infinity) in Sprague-Dawley rat at 3 mg/kg,po and measured after 72 hrs by LC/MS/MS analysis; type: ADME, organism-based; set-up: time 72 hrs, dose 3 mg/kg, route po; conditions: in vivo
[15] = Volume of distribution at steady state in Sprague-Dawley rat at 1 mg/kg,iv and measured after 72 hrs by LC/MS/MS analysis; type: ADME, organism-based; conditions: in vivo, read-out: Vdss

Row | Structure (SMILES) | pIC50 (Hepatitis C virus [1]) | CC50 [2] [µM] | pIC50 (Hepatitis C virus [3]) | IC90 (Hepatitis C virus [3]) [µM] | fraction unbound at 6 h, 1 µM [4] | Cmax [5] [µg/mL] | fAUC [6] [µg·h/mL] | clearance [7] [L/h/kg] | half-life [8] [h] | bioavailability [9] [%] | fAUC [10] [µg·h/mL] | AUC(0-inf) ([11]; Sprague-Dawley) [µg·h/mL] | CL free [12] [L/h/kg] | half-life [13] [h] | AUC(0-inf) [14] [µg·h/mL] | Vd [15] [L/kg] | AUC ([11]; 72 h) [µg·h/mL]
1 | C[C@H](C(=O)N(C)C)N(c1cc(C#CC(C)(C)C)sc1C(=O)O)C(=O)[C@H]1CC[C@H](C)CC1 | 5.88 | > 20 | 6.96 | 0.61 |  |  |  |  |  |  |  |  |  |  |  |  | 
2 | CC(C)(C)C#Cc1cc(N(CC(=O)N2CCOCC2)C(=O)[C@H]2CC[C@H](C)CC2)c(C(=O)O)s1 | 6.47 | > 20 | 7.64 | 0.1 |  |  |  |  |  |  |  |  |  |  |  |  | 
3 | CN1CC[C@H](N(c2cc(C#CC(C)(C)C)sc2C(=O)O)C(=O)[C@H]2CC[C@H](C)CC2)C1=O | 7.40 | > 20 | 8.40 | 0.013 | 0.019 | 0.119 | 0.00334 | 4.42 | 4.66 | 26 | 0.00435 | 0.229 | 232.8 | 3.07 | 0.176 | 6.04 | 
4 | CN1CC[C@@H](N(c2cc(C#CC(C)(C)C)sc2C(=O)O)C(=O)[C@H]2CC[C@H](C)CC2)C1=O | 6.85 | > 20 | 7.80 | 0.096 | 0.002 | 1.31 | 0.00664 |  |  | 64 | 0.00348 |  | 678 | 2.73 | 3.32 | 1.93 | 1.74

Reference: ChEMBL document CHEMBL5260802, “Discovery of Novel Allosteric HCV NS5B Inhibitors. 2. Lactam-Containing Thiophene Carboxylates” (ACS Med Chem Lett, 2017)
